The NIST ThermoML archive (doi:10.1021/acs.jced.8b00213)

Key:
[1] = xn = mol fraction of the nth substance listed; settings: 100 kPa, Liquid, x1 = 0.25; for electrical conductivity: Alternating current cell with electrodes; for viscosity: Falling or rolling sphere viscometry; for speed of sound: Single path-length method; for mass density: Vibrating tube method
[2] = refractive index (Na D-line) (dimensionless); xn = mol fraction of the nth substance listed; settings: 100 kPa, Liquid, Standard Abbe refractometry, x1 = 0.25

C[N+](C)(C)Cc1ccccc1.[Cl-] [trimethylbenzylammonium chloride] + OCCOCCOCCO
Settings | electrical conductivity, [1] [S/m] | mass density, [1] [kg/m3] | refractive index, [2] | speed of sound, [1] [m/s] | viscosity, [1] [mPa·s]
283.15 K | 0.048 | 1127.45 | 1.4923 | 1776.2 | 620.1
288.15 K | 0.063 | 1124.08 | 1.4908 | 1761 | 470.8
293.15 K | 0.081 | 1120.7 | 1.4894 | 1746.2 | 370.5
298.15 K | 0.101 | 1117.31 | 1.488 | 1731.4 | 308.8
303.15 K | 0.124 | 1113.93 | 1.4865 | 1716.9 | 214.3
308.15 K | 0.152 | 1110.57 | 1.4849 | 1702.8 | 155.7
313.15 K | 0.187 | 1107.21 | 1.4836 | 1688.5 | 115.6
318.15 K | 0.226 | 1103.87 | 1.4821 | 1674.6 | 87.8
323.15 K | 0.278 | 1100.54 | 1.4807 | 1660.8 | 68.5
328.15 K | 0.325 | 1097.22 | 1.4792 | 1647.2 | 54.9
333.15 K | 0.377 | 1093.9 | 1.4778 | 1633.6 | 43.5
338.15 K | 0.44 | 1090.59 | 1.4763 | 1620.1 | 34.3
343.15 K | 0.506 | 1087.29 | 1.4749 | 1606.6 | 27.4

C[N+](C)(C)Cc1ccccc1.[Cl-] [trimethylbenzylammonium chloride] + OCC(O)CO
Settings | electrical conductivity, [1] [S/m] | mass density, [1] [kg/m3] | refractive index, [2] | speed of sound, [1] [m/s] | viscosity, [1] [mPa·s]
283.15 K | 0.012 | 1190.87 | 1.5126 | 1992.6 | –
288.15 K | 0.019 | 1187.92 | 1.5114 | 1970.8 | 1874.9
293.15 K | 0.027 | 1184.97 | 1.5102 | 1953 | 1170.9
298.15 K | 0.039 | 1182.02 | 1.5089 | 1937.6 | 753.5
303.15 K | 0.055 | 1178.99 | 1.5078 | 1923.4 | 501.5
308.15 K | 0.077 | 1176.07 | 1.5064 | 1910.1 | 342.7
313.15 K | 0.104 | 1173.14 | 1.5052 | 1897.2 | 238.3
318.15 K | 0.138 | 1170.19 | 1.5039 | 1884.6 | 171.8
323.15 K | 0.181 | 1167.23 | 1.5027 | 1872.3 | 126.7
328.15 K | 0.231 | 1164.25 | 1.5014 | 1860 | 95.4
333.15 K | 0.283 | 1161.27 | 1.5002 | 1847.9 | 73
338.15 K | 0.34 | 1158.29 | 1.4989 | 1835.8 | 58.2
343.15 K | 0.413 | 1155.33 | 1.4977 | 1824.2 | 46.3

C[N+](C)(C)Cc1ccccc1.[Cl-] [trimethylbenzylammonium chloride] + OCCOCCO
Settings | electrical conductivity, [1] [S/m] | mass density, [1] [kg/m3] | refractive index, [2] | speed of sound, [1] [m/s] | viscosity, [1] [mPa·s]
283.15 K | 0.088 | 1120.06 | 1.4954 | 1782.6 | 263.4
288.15 K | 0.109 | 1116.91 | 1.494 | 1769 | 185.4
293.15 K | 0.132 | 1113.75 | 1.4925 | 1755.8 | 134.1
298.15 K | 0.165 | 1110.6 | 1.4911 | 1742.9 | 98.6
303.15 K | 0.201 | 1107.46 | 1.4897 | 1730.2 | 74.8
308.15 K | 0.254 | 1104.33 | 1.4884 | 1717.7 | 57.9
313.15 K | 0.311 | 1101.21 | 1.4869 | 1705.3 | 44.4
318.15 K | 0.356 | 1098.09 | 1.4855 | 1693 | 34.8
323.15 K | 0.398 | 1094.99 | 1.4841 | 1680.8 | 27.8
328.15 K | 0.474 | 1091.89 | 1.4826 | 1668.7 | 23.2
333.15 K | 0.539 | 1088.79 | 1.4813 | 1656.6 | 18.7
338.15 K | 0.611 | 1085.7 | 1.4798 | 1644.7 | 16
343.15 K | 0.681 | 1082.63 | 1.4784 | 1633.1 | 14.2

CCCC[N+](CCCC)(CCCC)Cc1ccccc1.[Cl-] [benzyltributylammonium chloride] + OCCOCCOCCO
Settings | electrical conductivity, [1] [S/m] | mass density, [1] [kg/m3] | refractive index, [2] | speed of sound, [1] [m/s] | viscosity, [1] [mPa·s]
283.15 K | 0.013 | 1077.97 | 1.4936 | 1710.1 | 738.7
288.15 K | 0.017 | 1074.64 | 1.4921 | 1692.4 | 506
293.15 K | 0.021 | 1071.36 | 1.4906 | 1675.8 | 356.9
298.15 K | 0.027 | 1068.09 | 1.4889 | 1659.8 | 256.5
303.15 K | 0.035 | 1064.81 | 1.4874 | 1644.2 | 188.5
308.15 K | 0.043 | 1061.53 | 1.4857 | 1629.2 | 142.4
313.15 K | 0.054 | 1058.25 | 1.4842 | 1614.3 | 109.1
318.15 K | 0.067 | 1054.97 | 1.4827 | 1599.8 | 85.2
323.15 K | 0.082 | 1051.7 | 1.4811 | 1585.4 | 67.7
328.15 K | 0.098 | 1048.43 | 1.4795 | 1571.2 | 54.4
333.15 K | 0.114 | 1045.18 | 1.4779 | 1557.1 | 43.3
338.15 K | 0.145 | 1041.92 | 1.4764 | 1543.3 | 34.9
343.15 K | 0.174 | 1038.69 | 1.4748 | 1530 | 28.3

C[N+](C)(C)Cc1ccccc1.[Cl-] [trimethylbenzylammonium chloride] + OCCO
Settings | electrical conductivity, [1] [S/m] | mass density, [1] [kg/m3] | refractive index, [2] | speed of sound, [1] [m/s] | viscosity, [1] [mPa·s]
283.15 K | 0.263 | 1110.06 | 1.4995 | 1856.7 | 101.9
288.15 K | 0.32 | 1107 | 1.498 | 1843.6 | 76.1
293.15 K | 0.391 | 1103.95 | 1.4966 | 1830.8 | 58.2
298.15 K | 0.461 | 1100.92 | 1.4951 | 1818 | 45.3
303.15 K | 0.552 | 1097.89 | 1.4935 | 1805.3 | 35.9
308.15 K | 0.643 | 1094.87 | 1.4921 | 1792.7 | 29
313.15 K | 0.75 | 1091.85 | 1.4907 | 1780.2 | 23.9
318.15 K | 0.872 | 1088.84 | 1.4893 | 1767.8 | 19.9
323.15 K | 0.997 | 1085.83 | 1.4878 | 1755.4 | 16.8
328.15 K | 1.12 | 1082.83 | 1.4864 | 1743 | 14.3
333.15 K | 1.25 | 1079.82 | 1.4849 | 1730.7 | 12.3
338.15 K | 1.41 | 1076.82 | 1.4835 | 1718.5 | 10.7
343.15 K | 1.56 | 1073.83 | 1.482 | 1706.6 | 9.5

CCCC[N+](CCCC)(CCCC)Cc1ccccc1.[Cl-] [benzyltributylammonium chloride] + OCCO
Settings | electrical conductivity, [1] [S/m] | mass density, [1] [kg/m3] | refractive index, [2] | speed of sound, [1] [m/s] | viscosity, [1] [mPa·s]
283.15 K | 0.03 | 1045.37 | 1.4993 | 1734.9 | 901.4
288.15 K | 0.039 | 1042.15 | 1.4979 | 1716.3 | 598.4
293.15 K | 0.048 | 1039 | 1.4963 | 1698.9 | 415.2
298.15 K | 0.064 | 1035.88 | 1.4947 | 1682.2 | 286
303.15 K | 0.081 | 1032.74 | 1.4932 | 1666.2 | 211
308.15 K | 0.099 | 1029.6 | 1.4917 | 1650.5 | 155.5
313.15 K | 0.122 | 1026.44 | 1.4901 | 1635.2 | 117.1
318.15 K | 0.148 | 1023.29 | 1.4886 | 1620.1 | 89.9
323.15 K | 0.181 | 1020.13 | 1.4871 | 1605.2 | 70.7
328.15 K | 0.219 | 1016.97 | 1.4855 | 1590.5 | 55.8
333.15 K | 0.262 | 1013.82 | 1.484 | 1576 | 43.6
338.15 K | 0.315 | 1010.67 | 1.4825 | 1561.7 | 34.9
343.15 K | 0.365 | 1007.53 | 1.4809 | 1547.9 | 28.1

CCCC[N+](CCCC)(CCCC)Cc1ccccc1.[Cl-] [benzyltributylammonium chloride] + OCCOCCO
Settings | electrical conductivity, [1] [S/m] | mass density, [1] [kg/m3] | refractive index, [2] | speed of sound, [1] [m/s] | viscosity, [1] [mPa·s]
283.15 K | 0.019 | 1063.94 | 1.4957 | 1706.8 | 961.86
288.15 K | 0.025 | 1060.76 | 1.4945 | 1689.5 | 644.25
293.15 K | 0.032 | 1057.65 | 1.4929 | 1673.2 | 433.54
298.15 K | 0.04 | 1054.57 | 1.4909 | 1658.1 | 310.37
303.15 K | 0.052 | 1051.5 | 1.4893 | 1643.5 | 224.9
308.15 K | 0.066 | 1048.41 | 1.4878 | 1629.5 | 168.37
313.15 K | 0.081 | 1045.31 | 1.486 | 1615.6 | 125.21
318.15 K | 0.099 | 1042.22 | 1.4849 | 1602 | 96.78
323.15 K | 0.115 | 1039.12 | 1.4836 | 1588.6 | 76.23
328.15 K | 0.13 | 1036.03 | 1.4815 | 1575.3 | 62.63
333.15 K | 0.154 | 1032.94 | 1.4804 | 1562.1 | 50.43
338.15 K | 0.178 | 1029.85 | 1.4786 | 1549.2 | 40.68
343.15 K | 0.207 | 1026.78 | 1.4776 | 1536.7 | 32.76
